# Measurements taken from ChEMBL document CHEMBL4342505, “Achieving In Vivo Target Depletion through the Discovery and Optimization of Benzimidazolone BCL6 Degraders” (J Med Chem, 2020).
# What was measured:
# [1] = Kinetic solubility in HEPES buffer containing 5% DMSO at pH 8 incubated for 20 hrs by NMR analysis; assay type: physicochemical; details: read-out: Kinetic_solubility
# [2] = target: T1, B-cell lymphoma 6 protein (Homo sapiens, UniProt P41182)
# Description: Inhibition of recombinant His-tagged human BCL6 expressed in Escherichia coli BL21 AI cell incubated for 2 hrs by TR-FRET assay
# [3] = Metabolic stability in CD-1 mouse liver microsomes assessed as intrinsic clearance at 1 uM measured upt0 30 mins by LC-MS/MS analysis; assay type: ADME, Microsome; details: 0.5 h
# [4] = Lipophilicity, log D of compound at pH 7.4; assay type: physicochemical; details: buffer
# [5] = target: T1, B-cell lymphoma 6 protein; remark: listed apart in the source
# Description: Induction of BCL6 degradation in human SUDHL-4 cells incubated for 2 hrs by immunofluorescence analysis
# [6] = target: BCL-6/NCOR2 (Homo sapiens, UniProt P41182)
# Description: Inhibition of recombinant human Nanoluc-tagged BCL6/Halo-tagged SMRT transfected in human HEK293T cells assessed as reduction in BCL6/SMRT interaction incubated for 6 hrs by NANOBRET assay
# [7] = Kinetic solubility in PBS buffer containing 1% DMSO at pH 7.4 incubated for 2 hrs by HPLC analysis; assay type: physicochemical; details: read-out: Kinetic_solubility
# [8] = tested on: OCI-Ly1; experiment: Antiproliferative activity agianst human OCI-LY1 cells assessed as growth inhibition incubated for 14 days by CellTiter Glo reagent based assay
# [9] = tested on: OCI-Ly3; experiment: Antiproliferative activity agianst human OCI-LY3 cells assessed as growth inhibition incubated for 14 days by CellTiter Glo reagent based assay
# [10] = target: T1, B-cell lymphoma 6 protein; details: oci-ly1
# Description: Induction of BCL6 degradation in human OCI-LY1 cells incubated for 2 hrs by MSD electrochemiluminescent immunoassay
# [11] = target: T1, B-cell lymphoma 6 protein; remark: listed apart in the source
# Description: Induction of BCL6 degradation in human KARPAS422 cells incubated for 2 hrs by MSD electrochemiluminescent immunoassay
# [12] = Permeability of compound by PAMPA assay; assay type: ADME
# [13] = target: T1, B-cell lymphoma 6 protein; experiment: Induction of BCL6 degradation in human SUDHL-4 cells incubated for 4 hrs by Western blot analysis; assay type: cell-based
# [14] = target: T1, B-cell lymphoma 6 protein; experiment: Induction of BCL6 degradation in human OCI-LY1 cells incubated for 4 hrs by Western blot analysis; assay type: cell-based
# [15] = tested on: SUD4; experiment: Antiproliferative activity agianst human SUDHL4 cells assessed as growth inhibition incubated for 14 days by CellTiter Glo reagent based assay; assay type: functional; details: SU-DHL-4, […]
Structure (SMILES),solubility kinetic at 20 h [1] [µM],IC50 [2] [µM],DC50 [5] [µM],other results
CC[C@H](O)Cn1c(=O)n(C)c2ccc(Nc3ccnc(Cl)c3C#N)cc21,313,4.6,,
C[C@@H](O)CCn1c(=O)n(C)c2ccc(Nc3ccnc(Cl)c3C#N)cc21,308,,,
CN(C)c1ncc(Cl)c(Nc2ccc3c(c2)n(CCC(C)(C)O)c(=O)n3C)n1,223,1.2,,
Cn1c(=O)n(C)c2cc(Nc3cc(SCc4ccccc4)ncn3)ccc21,< 30,,,
CC1CN(c2ncc(Cl)c(Nc3ccc4c(c3)n(CCC(C)(C)O)c(=O)n4C)n2)CCC1(F)F (centres undefined),24,0.33,0.18,CLH [3]: 66 µL/min/mg; logD [4]: 3.9
Cn1c(=O)n(CCC(C)(C)O)c2cc(Nc3c(Cl)cncc3Cl)ccc21,126,37,,
Cn1c(=O)n(CCC(C)(C)O)c2cc(Nc3nc(N4CCC(C(F)(F)F)CC4)ncc3Cl)ccc21,22,0.96,> 10,
Cn1c(=O)n(CCC(C)(C)O)c2cc(Nc3nc(N4CCCC(CO)C4)ncc3Cl)ccc21 (centres undefined),442,0.13,0.45,CLH [3]: 370 µL/min/mg; logD [4]: 2.1
Cc1nc(C)c(-c2ncc(Cl)c(Nc3ccc4c(c3)n(CCC(C)(C)O)c(=O)n4C)n2)s1,< 30,1.4,> 10,
Cn1c(=O)n(CCC(C)(C)O)c2cc(Nc3ncnc(Cl)c3Cl)ccc21,344,2.1,,
C[C@@H]1CN(c2cc(Nc3ccc4c(c3)n(CCC(C)(C)O)c(=O)n4C)c(Cl)cn2)C[C@H](C)O1,83,0.93,,IC50 [6]: 5 µM
CCC(C#N)Cn1c(=O)n(C)c2ccc(Nc3ccnc(Cl)c3C#N)cc21 (centres undefined),< 30,,,solubility kinetic at 2 h [7]: 9.2 µM
CCC(O)Cn1c(=O)n(C)c2ccc(Nc3ccnc(Cl)c3C#N)cc21 (racemic),298,5.4,,
Cn1c(=O)n(CCC(C)(C)O)c2cc(Nc3nc(N4C5CCC4CC(F)(F)C5)ncc3Cl)ccc21,< 30,,,
COCC1CN(c2ncc(Cl)c(Nc3ccc4c(c3)n(CCC(C)(C)O)c(=O)n4C)n2)CCC1(F)F (centres undefined),72,,0.44,CLH [3]: > 1000 µL/min/mg; logD [4]: 3.5
C[C@@H]1CN(c2ncc(Cl)c(Nc3ccc4c(c3)n(CCC(C)(C)O)c(=O)n4C)n2)C[C@H](C)N1C,343,0.19,> 10,IC50 [6]: 1.55 µM
CC[C@@H](O)Cn1c(=O)n(C)c2ccc(Nc3ccnc(Cl)c3C#N)cc21,307,4.5,,
Cn1c(=O)n(CCC(C)(C)O)c2cc(Nc3nc(N4CCC(F)(F)CC4)ncc3Cl)ccc21,66,0.31,,CLH [3]: 36 µL/min/mg; GI50 [8]: 0.5 µM; GI50 [9]: 2.6 µM; logD [4]: 3.4; DC50 [10]: 0.18 µM; DC50 [11]: 0.29 µM
Cn1c(=O)n(CCC(C)(C)O)c2cc(Nc3nc(Cl)ncc3Cl)ccc21,361,,,
CCCCn1c(=O)n(C)c2ccc(Nc3ccnc(Cl)c3C#N)cc21,53,6.6,,
C[C@H](O)CCn1c(=O)n(C)c2ccc(Nc3ccnc(Cl)c3C#N)cc21,251,,,
CSc1ncc(Cl)c(Nc2ccc3c(c2)n(CCC(C)(C)O)c(=O)n3C)n1,337,0.68,,
Cn1c(=O)n(CCC(C)(C)O)c2cc(Nc3ccnc(Cl)c3C#N)ccc21,< 30,,,solubility kinetic at 2 h [7]: 25 µM

Structure (SMILES),solubility kinetic at 20 h [1] [µM],IC50 [2] [µM],DC50 [5] [µM],other results
C[C@@H]1CN(c2ncc(Cl)c(Nc3ccc4c(c3)n(CCC(C)(C)O)c(=O)n4C)n2)C[C@H](C)O1,< 30,0.15,> 10,solubility kinetic at 2 h [7]: 95 µM; CLH [3]: 104 µL/min/mg; IC50 [6]: 1.76 µM
C[C@@H]1C[C@H](C)CN(c2ncc(Cl)c(Nc3ccc4c(c3)n(CCC(C)(C)O)c(=O)n4C)n2)C1,< 30,,,solubility kinetic at 2 h [7]: 6 µM; permeability [12]: 360 nm/s; Activity [13]: Dose-dependent effect; Activity [14]: Dose-dependent effect; CLH [3]: 2440 µL/min/mg; GI50 [15]: 0.35 µM; GI50 [8]: 0.28 µM; GI50 [9]: 3.1 µM; logD [4]: 4.7
Cc1cc(C)n(-c2cc(Nc3ccc4c(c3)n(CCC(C)(C)O)c(=O)n4C)c(Cl)cn2)n1,135,0.79,> 10,IC50 [6]: 4.6 µM
Cn1c(=O)n(CCC(C)(C)O)c2cc(Nc3ccncc3Cl)ccc21,526,0.99,,
Cn1ccnc1-c1ncc(Cl)c(Nc2ccc3c(c2)n(CCC(C)(C)O)c(=O)n3C)n1,113,0.48,> 10,IC50 [6]: 4.6 µM
Cn1c(=O)n(CCC(C)(C)O)c2cc(Nc3nc(N4CCCC(C#N)C4)ncc3Cl)ccc21 (centres undefined),330,0.39,> 10,
C[C@@H]1C[C@H](C)CN(c2cc(Nc3ccc4c(c3)n(CCC(C)(C)O)c(=O)n4C)c(Cl)cn2)C1,12,3.5,1.8,
Cn1c(=O)n(CCC(C)(C)O)c2cc(Nc3nc(N4CCCCC4)ncc3Cl)ccc21,70,1,,
Cn1c(=O)n(CCC(C)(C)O)c2cc(Nc3nc(N4CCC(F)(F)C(CO)C4)ncc3Cl)ccc21 (centres undefined),294,,,GI50 [15]: 0.41 µM; GI50 [8]: 0.5 µM; GI50 [9]: 2.9 µM; logD [4]: 2.5
Cn1c(=O)n(CCC(C)(C)O)c2cc(Nc3nc(N4CCOCC4)ncc3Cl)ccc21,370,0.27,,IC50 [6]: 2.3 µM
N#Cc1c(NCC2CC2)ccnc1Cl,300,,,
Cn1c(=O)n(C)c2cc(Nc3ccnc(Cl)c3C#N)ccc21,< 30,,,solubility kinetic at 2 h [7]: 16 µM
Cn1c(=O)n(CCC(C)(C)O)c2cc(Nc3nc(-n4cccn4)ncc3Cl)ccc21,146,0.71,> 10,IC50 [6]: 5.9 µM
N#Cc1c(NCc2ccccc2)ccnc1Cl,60,,,
Cc1cc(C)n(-c2ncc(Cl)c(Nc3ccc4c(c3)n(CCC(C)(C)O)c(=O)n4C)n2)n1,404,0.26,> 10,IC50 [6]: 1.8 µM
Cc1ccnn1-c1ncc(Cl)c(Nc2ccc3c(c2)n(CCC(C)(C)O)c(=O)n3C)n1,420,0.43,> 10,IC50 [6]: 2.7 µM
Cn1c(=O)n(C)c2cc(Nc3ncccc3C#N)ccc21,300,,,
Cn1c(=O)n(CCC(C)(C)O)c2cc(Nc3nc(N4CC5CCC(C4)C5(F)F)ncc3Cl)ccc21,22,0.71,> 10,
Cc1ccn(-c2ncc(Cl)c(Nc3ccc4c(c3)n(CCC(C)(C)O)c(=O)n4C)n2)n1,253,0.4,> 10,IC50 [6]: 2.5 µM
CC1CCCN(c2ncc(Cl)c(Nc3ccc4c(c3)n(CCC(C)(C)O)c(=O)n4C)n2)C1 (centres undefined),44,0.64,0.52,CLH [3]: 2210 µL/min/mg; logD [4]: 4.2; IC50 [6]: 13 µM
Cn1c(=O)n(CCC(C)(C)O)c2cc(Nc3ccnc(Cl)c3Cl)ccc21,251,1.4,,
Cn1c(=O)n(CCC(C)(C)O)c2cc(Nc3nc(N4CCCC(C(F)(F)F)C4)ncc3Cl)ccc21 (centres undefined),< 30,0.4,0.75,CLH [3]: 630 µL/min/mg; logD [4]: 4.2
